Source: ChEMBL document CHEMBL1201862, “PubChem BioAssay data set” (2004)
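The compound was tested at five concentrations on cells cultured in 96-well plates, with a 48-hour exposure period. Here, GI50 denotes the concentration required for 50% inhibition of growth.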 Calls of active or inactive are those of the source. Rule as the data show it: active = GI50 up to about 1.1 µM and inactive = higher.

Legend:
Assay in all cases: inhibition of tumour cell growth, NCI panel, 48 h
[1] = test system: M19-MEL
[2] = test system: SK-MEL-5
[3] = test system: UACC-257
[4] = test system: K562
[5] = test system: SN12C
[6] = test system: UO-31
[7] = test system: SNB-75
[8] = test system: M14
[9] = test system: SR
[10] = test system: COLO 205
[11] = test system: SF-295
[12] = test system: U-251
[13] = test system: RXF 631
[14] = test system: TK-10
[15] = test system: SF-539
[16] = test system: HOP-62
[17] = test system: NCI-H226
[18] = test system: 786-0
[19] = test system: SNB-19
[20] = test system: DMS-273
[21] = test system: MOLT-4
[22] = test system: IGROV-1
[23] = test system: OVCAR-8
[24] = test system: OVCAR-4
[25] = test system: HCT-116
[26] = test system: SK-MEL-28
[27] = test system: NCI-H460
[28] = test system: HOP-92
[29] = test system: Malme-3M
[30] = test system: DMS-114
[31] = test system: DLD-1
[32] = test system: A549
[33] = test system: NCI-H522
[34] = test system: HT-29
[35] = test system: ACHN
[36] = test system: OVCAR-5
[37] = test system: EKVX
[38] = test system: SNB-78
[39] = test system: OVCAR-3
[40] = test system: A498
[41] = test system: LXFL 529
[42] = test system: UACC-62
[43] = test system: SK-MEL-2
[44] = test system: CAKI-1
[45] = test system: SF-268
[46] = test system: HCC 2998
[47] = test system: SW-620
[48] = test system: LOX IMVI
[49] = test system: KM12
[50] = test system: CCRF-CEM
[51] = test system: SK-OV-3
[52] = test system: RPMI-8226
[53] = test system: NCI-H23
[54] = test system: HOP-18
[55] = test system: KM-20L2
[56] = test system: HL-60
[57] = test system: HCT-15
[58] = test system: RXF 393

Cn1cnc([N+](=O)[O-])c1Sc1nnc(C(F)(F)F)n1C
GI50 [1]: 18.9 µM (inactive) | GI50 [2]: 32.6 µM (inactive) | GI50 [3]: 17.3 µM (inactive) | GI50 [4]: 23.4 µM (inactive) | GI50 [5]: 40.2 µM (inactive) | GI50 [6]: 26.5 µM (inactive) | GI50 [7]: 84.1 µM (inactive) | GI50 [8]: 17.4 µM (inactive) | GI50 [9]: 17.6 µM (inactive) | GI50 [10]: 14.6 µM (inactive) | GI50 [11]: > 100 µM (inactive) | GI50 [12]: 17.1 µM (inactive) | GI50 [13]: 17.6 µM (inactive) | GI50 [14]: 26.4 µM (inactive) | GI50 [15]: 20.5 µM (inactive) | GI50 [16]: > 100 µM (inactive) | GI50 [17]: 24.9 µM (inactive) | GI50 [18]: 39.4 µM (inactive) | GI50 [19]: > 100 µM (inactive) | GI50 [20]: 25.6 µM (inactive) | GI50 [21]: 15.2 µM (inactive) | GI50 [22]: 40 µM (inactive) | GI50 [23]: 24.9 µM (inactive) | GI50 [24]: 24.3 µM (inactive) | GI50 [25]: 16.3 µM (inactive) | GI50 [26]: 18.7 µM (inactive) | GI50 [27]: > 100 µM (inactive) | GI50 [28]: 16 µM (inactive) | GI50 [29]: 15.1 µM (inactive) | GI50 [30]: 34.6 µM (inactive) | GI50 [31]: 16.4 µM (inactive) | GI50 [32]: > 100 µM (inactive) | GI50 [33]: 10.4 µM (inactive) | GI50 [34]: 35.7 µM (inactive) | GI50 [35]: 23.6 µM (inactive) | GI50 [36]: > 100 µM (inactive) | GI50 [37]: > 100 µM (inactive) | GI50 [38]: 26.2 µM (inactive) | GI50 [39]: 22 µM (inactive) | GI50 [40]: > 100 µM (inactive) | GI50 [41]: 14.2 µM (inactive) | GI50 [42]: 18 µM (inactive) | GI50 [43]: 21.9 µM (inactive) | GI50 [44]: 62.1 µM (inactive) | GI50 [45]: 83.6 µM (inactive) | GI50 [46]: 75.2 µM (inactive) | GI50 [47]: 18.6 µM (inactive) | GI50 [48]: 15.3 µM (inactive) | GI50 [49]: > 100 µM (inactive) | GI50 [50]: 18.5 µM (inactive) | GI50 [51]: > 100 µM (inactive) | GI50 [52]: 19.7 µM (inactive) | GI50 [53]: 37.5 µM (inactive) | GI50 [54]: 19.5 µM (inactive)

Cc1ccccc1C1OC(=O)c2ccccc21 (stereo unspecified)
GI50 [55]: > 100 µM (inactive) | GI50 [1]: > 100 µM (inactive) | GI50 [2]: > 100 µM (inactive) | GI50 [4]: > 100 µM (inactive) | GI50 [5]: > 100 µM (inactive) | GI50 [6]: > 100 µM (inactive) | GI50 [7]: 77.3 µM (inactive) | GI50 [8]: > 100 µM (inactive) | GI50 [9]: > 100 µM (inactive) | GI50 [10]: > 100 µM (inactive) | GI50 [56]: > 100 µM (inactive) | GI50 [12]: > 100 µM (inactive) | GI50 [13]: > 100 µM (inactive) | GI50 [14]: > 100 µM (inactive) | GI50 [15]: > 100 µM (inactive) | GI50 [16]: > 100 µM (inactive) | GI50 [17]: > 100 µM (inactive) | GI50 [18]: > 100 µM (inactive) | GI50 [19]: > 100 µM (inactive) | GI50 [57]: > 100 µM | GI50 [20]: > 100 µM (inactive) | GI50 [21]: > 100 µM (inactive) | GI50 [22]: > 100 µM (inactive) | GI50 [23]: 83.8 µM (inactive) | GI50 [25]: > 100 µM (inactive) | GI50 [26]: > 100 µM (inactive) | GI50 [27]: > 100 µM (inactive) | GI50 [29]: > 100 µM (inactive) | GI50 [30]: > 100 µM (inactive) | GI50 [31]: > 100 µM (inactive) | GI50 [32]: > 100 µM (inactive) | GI50 [33]: > 100 µM (inactive) | GI50 [34]: > 100 µM (inactive) | GI50 [35]: > 100 µM (inactive) | GI50 [36]: > 100 µM (inactive) | GI50 [37]: > 100 µM (inactive) | GI50 [38]: > 100 µM (inactive) | GI50 [39]: > 100 µM (inactive) | GI50 [40]: > 100 µM (inactive) | GI50 [41]: > 100 µM (inactive) | GI50 [42]: 56.1 µM (inactive) | GI50 [43]: > 100 µM (inactive) | GI50 [45]: > 100 µM (inactive) | GI50 [46]: > 100 µM (inactive) | GI50 [47]: > 100 µM (inactive) | GI50 [48]: > 100 µM (inactive) | GI50 [49]: > 100 µM (inactive) | GI50 [58]: > 100 µM (inactive) | GI50 [50]: > 100 µM (inactive) | GI50 [51]: > 100 µM (inactive) | GI50 [53]: > 100 µM (inactive) | GI50 [54]: > 100 µM (inactive)
